Test results: article PMC7313537 (PLoS ONE, 2020)

Tests used:
AURKA = AURKA (Homo sapiens, UniProt O14965); assay: Enzyme selectivity panel; assay type: biochemical; conditions: 1 mM ATP
Experimental: (§2) The kinase assays were carried out at room temperature in HEPES 50 mM, pH 7.0, NaN3 0.02%, BSA 0.01%, Orthovanadate 0.1 mM, DTT 1 mM, MgCl2 10 mM in a final volume of 10 µL. Test compounds were transferred to the plate wells by ECHO liquid handler (Labcyte, San Jose, CA) with 0.5% dimethyl sulfoxide (DMSO) in the final assay. Peptide/kinase mixtures were diluted in the appropriate enzymatic buffer and 5µL of the mixture was added to a 384-well small volume black plate. Reactions were initiated by the addition of 5 µL ATP in reaction buffer, the final reaction mixture consisted of 500 nM peptide substrate, 1 mM ATP, and appropriate amount of specific kinase. […] The plates were then sealed and centrifuged at 1800 rpm for 2 minutes. […] Half maximal inhibitory concentration (IC50) determination was performed by fitting the curve of percent control activity versus the log of the compound concentration using the GraphPad Prism 6.0 software.

CLK3 = CLK3 (Homo sapiens, UniProt P49761); assay: Enzyme selectivity panel; assay type: biochemical; conditions: 1 mM ATP
Experimental: as §2

GSK3B = molecular target: T1, GSK3B (Homo sapiens, UniProt P49841); assay: Enzyme selectivity panel; assay type: biochemical; conditions: 1 mM ATP
T1 construct: purchased In-house HTRF panel (56 kinases) and PerkinElmer (161-kinase panel)
T1 sequence (P49841 whole entry, species assumed): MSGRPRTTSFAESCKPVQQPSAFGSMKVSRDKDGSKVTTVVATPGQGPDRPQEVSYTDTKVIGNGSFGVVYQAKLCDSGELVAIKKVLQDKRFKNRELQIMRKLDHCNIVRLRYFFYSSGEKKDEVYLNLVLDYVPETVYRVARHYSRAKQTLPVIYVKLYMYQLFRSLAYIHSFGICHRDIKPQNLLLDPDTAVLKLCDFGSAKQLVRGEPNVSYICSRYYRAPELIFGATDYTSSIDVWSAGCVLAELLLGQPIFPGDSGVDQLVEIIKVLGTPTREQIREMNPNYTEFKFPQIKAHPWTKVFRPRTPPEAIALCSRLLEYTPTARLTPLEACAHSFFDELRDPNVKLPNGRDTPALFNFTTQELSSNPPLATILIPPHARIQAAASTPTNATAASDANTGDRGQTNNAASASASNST
Experimental: as §2

HIPK3 = HIPK3 (Homo sapiens, UniProt Q9H422); assay: Enzyme selectivity panel; assay type: biochemical; conditions: 1 mM ATP
Sequence of HIPK3 (Q9H422 whole entry, species assumed): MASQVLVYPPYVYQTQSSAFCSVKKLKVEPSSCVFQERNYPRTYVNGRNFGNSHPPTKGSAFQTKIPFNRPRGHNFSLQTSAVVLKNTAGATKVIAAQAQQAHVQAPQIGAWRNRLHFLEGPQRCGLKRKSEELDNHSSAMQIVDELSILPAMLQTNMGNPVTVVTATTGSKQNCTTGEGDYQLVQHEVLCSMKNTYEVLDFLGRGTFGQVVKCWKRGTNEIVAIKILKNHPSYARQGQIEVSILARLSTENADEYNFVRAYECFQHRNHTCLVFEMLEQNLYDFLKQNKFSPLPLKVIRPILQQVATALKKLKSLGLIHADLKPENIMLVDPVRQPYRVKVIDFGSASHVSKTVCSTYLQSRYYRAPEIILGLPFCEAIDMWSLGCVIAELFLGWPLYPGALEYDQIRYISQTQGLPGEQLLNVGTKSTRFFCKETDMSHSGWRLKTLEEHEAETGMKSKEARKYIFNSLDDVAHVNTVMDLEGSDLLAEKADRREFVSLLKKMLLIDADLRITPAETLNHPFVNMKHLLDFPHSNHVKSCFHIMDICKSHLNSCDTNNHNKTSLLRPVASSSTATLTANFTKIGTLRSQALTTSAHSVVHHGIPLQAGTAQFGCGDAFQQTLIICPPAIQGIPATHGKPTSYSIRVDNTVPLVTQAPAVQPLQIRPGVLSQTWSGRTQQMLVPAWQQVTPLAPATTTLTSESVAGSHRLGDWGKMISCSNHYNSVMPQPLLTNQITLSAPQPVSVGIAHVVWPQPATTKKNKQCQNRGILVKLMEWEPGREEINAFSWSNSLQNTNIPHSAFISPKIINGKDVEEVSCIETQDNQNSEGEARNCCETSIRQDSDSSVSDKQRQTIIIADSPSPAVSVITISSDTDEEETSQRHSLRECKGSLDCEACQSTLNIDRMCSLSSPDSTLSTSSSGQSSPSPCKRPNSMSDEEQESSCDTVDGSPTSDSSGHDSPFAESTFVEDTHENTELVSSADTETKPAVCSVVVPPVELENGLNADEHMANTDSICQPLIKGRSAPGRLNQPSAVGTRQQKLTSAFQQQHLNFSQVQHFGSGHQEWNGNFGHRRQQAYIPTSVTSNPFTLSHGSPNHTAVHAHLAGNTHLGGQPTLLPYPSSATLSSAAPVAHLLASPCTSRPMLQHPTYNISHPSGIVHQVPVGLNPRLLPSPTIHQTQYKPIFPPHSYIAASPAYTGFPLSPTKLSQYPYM
Experimental: as §2

LOK = LOK (Homo sapiens, UniProt O94804); assay: Enzyme selectivity panel; assay type: biochemical; conditions: 1 mM ATP
Experimental: as §2

MAP3K8 = MAP3K8 (Homo sapiens, UniProt P41279); assay: Enzyme selectivity panel; assay type: biochemical; conditions: 1 mM ATP
Sequence of MAP3K8 (P41279 whole entry, species assumed): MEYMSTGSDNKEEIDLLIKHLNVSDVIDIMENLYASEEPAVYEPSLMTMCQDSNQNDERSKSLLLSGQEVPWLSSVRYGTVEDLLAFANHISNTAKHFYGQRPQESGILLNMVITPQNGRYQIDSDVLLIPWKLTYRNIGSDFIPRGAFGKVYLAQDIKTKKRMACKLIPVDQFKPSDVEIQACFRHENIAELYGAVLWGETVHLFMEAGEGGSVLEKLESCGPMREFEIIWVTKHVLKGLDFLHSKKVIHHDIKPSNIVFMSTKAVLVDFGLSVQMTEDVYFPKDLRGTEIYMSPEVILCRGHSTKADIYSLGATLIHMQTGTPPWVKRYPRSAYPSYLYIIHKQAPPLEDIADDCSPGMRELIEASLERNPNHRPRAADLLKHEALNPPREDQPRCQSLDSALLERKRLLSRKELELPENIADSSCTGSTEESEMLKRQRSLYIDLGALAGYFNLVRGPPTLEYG
Experimental: as §2

SGK2 = molecular target: T2, SGK2 (Homo sapiens, UniProt Q9HBY8); assay: Enzyme selectivity panel; assay type: biochemical; conditions: 1 mM ATP
T2 construct: purchased In-house HTRF panel (56 kinases) and PerkinElmer (161-kinase panel)
T2 sequence (Q9HBY8 whole entry, species assumed): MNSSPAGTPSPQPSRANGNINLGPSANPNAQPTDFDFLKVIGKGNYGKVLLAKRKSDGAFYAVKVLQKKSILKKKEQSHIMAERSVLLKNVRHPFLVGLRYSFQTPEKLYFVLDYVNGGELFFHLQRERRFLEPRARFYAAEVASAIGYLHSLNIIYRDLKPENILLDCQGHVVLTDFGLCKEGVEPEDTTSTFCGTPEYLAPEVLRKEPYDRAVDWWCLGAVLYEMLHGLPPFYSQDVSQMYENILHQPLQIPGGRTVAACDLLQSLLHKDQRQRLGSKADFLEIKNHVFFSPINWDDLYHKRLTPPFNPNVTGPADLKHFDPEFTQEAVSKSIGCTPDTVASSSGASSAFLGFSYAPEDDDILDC
Experimental: as §2

SRC = molecular target: T3, SRC (Homo sapiens, UniProt P12931); assay: Enzyme selectivity panel; assay type: biochemical; conditions: 1 mM ATP
T3 construct: purchased In-house HTRF panel (56 kinases) and PerkinElmer (161-kinase panel)
T3 sequence (P12931 whole entry, species assumed): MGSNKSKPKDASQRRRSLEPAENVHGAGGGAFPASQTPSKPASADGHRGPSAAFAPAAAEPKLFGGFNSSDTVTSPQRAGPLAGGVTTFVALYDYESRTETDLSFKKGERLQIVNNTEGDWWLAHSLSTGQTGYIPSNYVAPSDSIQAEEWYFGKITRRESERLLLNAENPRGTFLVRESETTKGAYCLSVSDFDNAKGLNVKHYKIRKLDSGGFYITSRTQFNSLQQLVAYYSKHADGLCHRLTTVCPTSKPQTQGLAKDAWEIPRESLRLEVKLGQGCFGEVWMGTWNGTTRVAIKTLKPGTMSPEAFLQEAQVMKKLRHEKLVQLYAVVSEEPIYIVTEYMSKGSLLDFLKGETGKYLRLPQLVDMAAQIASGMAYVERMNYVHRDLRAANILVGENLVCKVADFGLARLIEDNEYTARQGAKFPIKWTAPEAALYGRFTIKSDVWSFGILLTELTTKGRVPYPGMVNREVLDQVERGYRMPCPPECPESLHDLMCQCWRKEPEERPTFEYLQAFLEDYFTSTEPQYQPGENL
Experimental: as §2

STK4 = STK4 (Homo sapiens, UniProt Q13043); assay: Enzyme selectivity panel; assay type: biochemical; conditions: 1 mM ATP
Sequence of STK4 (Q13043 whole entry, species assumed): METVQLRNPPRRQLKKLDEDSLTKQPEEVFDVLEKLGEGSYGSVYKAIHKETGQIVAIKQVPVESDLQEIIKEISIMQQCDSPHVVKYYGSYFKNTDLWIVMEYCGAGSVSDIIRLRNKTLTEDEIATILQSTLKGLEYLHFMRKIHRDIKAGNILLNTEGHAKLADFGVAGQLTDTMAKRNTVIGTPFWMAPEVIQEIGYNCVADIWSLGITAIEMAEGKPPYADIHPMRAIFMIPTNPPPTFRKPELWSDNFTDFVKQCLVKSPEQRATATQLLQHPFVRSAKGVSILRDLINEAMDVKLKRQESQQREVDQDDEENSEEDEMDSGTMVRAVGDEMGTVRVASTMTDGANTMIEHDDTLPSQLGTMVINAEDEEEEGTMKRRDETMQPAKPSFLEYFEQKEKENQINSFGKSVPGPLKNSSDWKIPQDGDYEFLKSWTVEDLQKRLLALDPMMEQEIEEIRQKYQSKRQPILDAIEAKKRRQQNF
Experimental: as §2

[1] = tested on: FGFR3 phosphorylation in RT-4 cells; assay: Proximity ligation assay; assay type: cell-based; conditions: 100 nM, 1 hour
From the text: S4 Figure. FGFR3 Phosphorylation Detected by Proximity Ligation Assay. […] Primary antibodies were rabbit anti-FGFR3 (Abcam, Cambridge, UK, #137084) at a 1:250 dilution and mouse 4G10 platinum anti-phosphotyrosine monoclonal cocktail IgG2b (Millipore, Burlington, MA, #05-1050) at a 1:250 dilution. Secondary probes were Duolink In Situ PLA® Probe Anti-Rabbit PLUS, affinity purified donkey anti-rabbit IgG (H+L) and Duolink In Situ PLA® Probe Anti-Mouse MINUS, Affinity purified donkey anti-mouse IgG (H+L). Detection was via Duolink In Situ Detection Reagents Red.

[2] = tested on: AN3CA (endometrial cancer); assay: Cell viability assay (CellTiter-Glo); assay type: cell-based; conditions: Homo sapiens, AN3-CA; FGFR2 N310R/N549K mutations; 72 hours; read-out: Mean GI50 ± S.D.
HEK293 = assay: Cell viability assay (CellTiter-Glo); assay type: cell-based; conditions: Homo sapiens, Embyronic kidney, lacking FGFR alterations
Caco-2 permeability = assay type: in vitro ADME; conditions: human, Caco-2; A–B at 50 μM
Experimental: (§1) The Caco-2 monolayers were incubated at 37°C, with ambient humidity, and CO2 for the duration of the transport assay. […] The apical volume was 0.2 mL and the basolateral volume was 0.6 mL. The incubation period was 120 minutes. At the end of the incubation period, 0.1 mL of sample was removed from the receiver side and an equal volume of acetonitrile was added for protein precipitation. After centrifugation, the supernatants were collected for analysis. Nadolol and metoprolol were included as low and high permeability comparators, respectively. Trans-epithelial electrical resistance was measured to ensure the integrity of the cell monolayers. Caco-2 cell monolayers with trans-epithelial electrical resistance values ≥300 Ω•cm2 were used for transport experiments.

Caco-2 cell monolayers = assay: Caco-2 permeability; assay type: in vitro ADME; conditions: A–B at 50 μM
Experimental: as §1

[3] = Intrinsic clearance in liver microsomes; assay type: in vitro ADME
Experimental: Aliquots were taken at 0, 10, 20, and 30 minutes and denatured with methanol. After centrifugation to remove the denatured proteins, the resulting supernatants were analyzed by LC/MS

Pharmacokinetic analyses = assay type: in vivo, beagle dogs; conditions: male dog
Experimental: The i.v. formulation in rats was 5% dimethylacetamide (DMAC) and 25% sulfobutyl ether β-cyclodextrin in acidified saline (pH 3). The i.v. formulation in dogs and monkeys was 5% DMAC and 20% sulfobutyl ether β-cyclodextrin in saline. The oral formulation in all species was 5% DMAC in 0.5% methylcellulose aqueous solution. For rats, blood samples were collected at predose, 5 (i.v. dosing only), 15, and 30 minutes, and 1, 2, 4, 6, 8, and 24 hours. For dogs, blood samples were collected at predose, 2.5 and 5 (i.v. dosing only), 15, and 30 minutes, and 1, 2, 3, 4, 6, 8, 12, and 24 hours postdose. For monkeys, blood samples were collected at predose, 5 and 10 (i.v. dosing only), 15, and 30 minutes, and 1, 2, 3, 4, 6, 8, 12, 16, and 24 hours postdose. Collected blood samples were processed to extract plasma by centrifugation and stored at −20 °C until analysis.
The plasma was protein precipitated and the diluted supernatant was analyzed using LC/MS/MS. A standard curve was prepared in plasma from 1 to 5,000 nM and processed in the same manner as the samples. The pharmacokinetic parameters were determined using WinNonLin 6.3.

[4] = tested on: RT-112 (FGFR3-TACC3 fusion positive) bladder carcinoma model; assay: RT-112 xenograft efficacy; assay type: in vivo, Rowett Nude rats; conditions: oral, 14 days
Experimental: The inoculation of 0.5 mL was performed subcutaneously on the flank. The treatment of tumor bearing rats was started 8 days after tumor inoculation.

[5] = tested on: KG1 (FGFROP2-FGFR1 fusion positive) AML model; assay: KG1 xenograft efficacy; conditions: 0.3 mg/kg once daily, oral, 14 days; P < 0.05
Experimental: The inoculation was performed subcutaneously on the right flank. The treatment of tumor bearing mice was started 7 days after tumor inoculation.

Sequence of AURKA (O14965 whole entry, species assumed): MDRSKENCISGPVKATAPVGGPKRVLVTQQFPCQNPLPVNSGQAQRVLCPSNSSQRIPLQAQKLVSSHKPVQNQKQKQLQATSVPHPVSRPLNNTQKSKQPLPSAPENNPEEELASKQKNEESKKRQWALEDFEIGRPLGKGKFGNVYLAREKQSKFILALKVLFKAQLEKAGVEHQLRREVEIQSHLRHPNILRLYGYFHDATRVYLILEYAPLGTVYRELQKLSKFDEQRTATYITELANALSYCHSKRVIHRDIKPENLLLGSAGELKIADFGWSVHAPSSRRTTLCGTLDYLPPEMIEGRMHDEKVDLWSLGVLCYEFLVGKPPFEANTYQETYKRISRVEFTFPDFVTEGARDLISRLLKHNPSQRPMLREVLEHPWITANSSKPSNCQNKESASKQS
Sequence of CLK3 (P49761 whole entry, species assumed): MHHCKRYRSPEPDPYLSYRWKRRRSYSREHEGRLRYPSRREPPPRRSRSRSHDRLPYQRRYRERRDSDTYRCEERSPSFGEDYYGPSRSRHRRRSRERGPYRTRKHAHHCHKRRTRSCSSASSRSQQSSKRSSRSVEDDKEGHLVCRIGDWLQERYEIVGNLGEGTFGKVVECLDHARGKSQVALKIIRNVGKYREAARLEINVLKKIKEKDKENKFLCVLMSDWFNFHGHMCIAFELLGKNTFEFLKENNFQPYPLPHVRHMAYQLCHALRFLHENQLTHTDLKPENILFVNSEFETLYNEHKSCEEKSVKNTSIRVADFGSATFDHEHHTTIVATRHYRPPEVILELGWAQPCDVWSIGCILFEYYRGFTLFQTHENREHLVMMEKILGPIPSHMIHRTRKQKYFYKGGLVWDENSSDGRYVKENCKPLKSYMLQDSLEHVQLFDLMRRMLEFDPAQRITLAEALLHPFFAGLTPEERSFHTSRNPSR

CCN1C(=O)N(c2c(F)c(OC)cc(OC)c2F)Cc2cnc3[nH]c(CN4CCOCC4)cc3c21 [INCB054828, pemigatinib]
IC50 (AURKA): > 10 µM
IC50 (CLK3): > 10 µM
IC50 (GSK3B): > 10 µM
IC50 (HIPK3): > 10 µM
IC50 (LOK): > 10 µM
IC50 (MAP3K8): > 10 µM
IC50 (SGK2): > 10 µM
IC50 (SRC): > 10 µM
IC50 (STK4): > 10 µM
FGFR3 phosphorylation [1]: a decrease was detected
GI50 [2]: 0.048 ± 0.028 µM
GI50 (HEK293): > 20 µM
Papp at 120 min, 50 μM (Caco-2 permeability): 11 ×10⁻⁶ cm/s
Caco-2 Papp (Caco-2 cell monolayers): moderate to high permeability
Intrinsic clearance ([3]; human liver microsomes): moderate metabolic stability
CLint scaled at 1 μM ([3]; human, pH 7.4): 13.3 mL/min/kg
clearance (Pharmacokinetic analyses; beagle, plasma, intravenous 1 mg/kg): 3.05 mL/min/kg
Cmax (Pharmacokinetic analyses; beagle, plasma, oral 2 mg/kg): 1770 nM
bioavailability (Pharmacokinetic analyses; beagle, plasma, oral 2 mg/kg): 98%
Vss (Pharmacokinetic analyses; intravenous 1 mg/kg): 3.49 L/kg
t½ (Pharmacokinetic analyses; intravenous 1 mg/kg): 15.7 h
Hepatic ER (Pharmacokinetic analyses; intravenous 1 mg/kg, % of hepatic blood flow): 10%
AUC (Pharmacokinetic analyses; oral 2 mg/kg): 22.1 µM·h
tumor growth inhibition ([4]; 0.3 mg/kg once daily): significant tumor growth inhibition
tumor growth inhibition ([4]; 1 mg/kg once daily): significant tumor growth inhibition
efficacy against subcutaneous xenograft [5]: significant efficacy
